Laboratory results published in article PMC10010643 (Cancer Chemotherapy and Pharmacology, 2023).

Test: Safety and tolerability, Part A single ascending-dose phase in healthy participants
Assay type: in vivo, human
Description: A further two cohorts were recruited. […] Each individual participated in one treatment period only, with the exception of the food-effect cohort (cohort A3) in which there were two treatment periods separated by at least 7 days washout. Participants resided at the Clinical Research Unit (CRU) from 1 day ahead of dosing (day − 1) to day 3 and returned for a follow-up visit 5–7 days after their final dose. For all cohorts, doses were administered in the fasted state in the morning of day 1 of Treatment Period 1. In the food-effect cohort, doses were given 30 min after the start of a high-fat breakfast (973 calories total: approximately 150 protein calories, 250 carbohydrate calories, and 500–600 fat calories) on day 1 of Treatment Period 2. For cohorts A1 to A5 in Treatment Period 1, dosing occurred such that one pair (one active and one placebo) were dosed at least 24 h before the remaining participants. Continuation to dose those who remained was at the investigator’s discretion. Escalating doses were administered following satisfactory sponsor and investigator review of the safety and tolerability data (up to 48 h post-final dose) and PK data (up to 24 h post-final dose) from the lower dose levels.
Safety and tolerability assessments included adverse event (AE) monitoring, physical examinations, laboratory assessments (hematology, clinical chemistry, and urinalysis), vital signs (blood pressure, pulse rate, and body temperature) and ECG.
No formal statistical assessment was performed for the safety analysis.

[1] = Part A 50 mg (1 x 50 mg), fasted
[2] = Part A 50 mg (10 x 5 mg), fasted

OC[C@H]1O[C@H](Sc2cncc(Br)c2)[C@H](O)[C@@H](n2cc(-c3cc(F)c(F)c(F)c3)nn2)[C@H]1O [GB1211]
Effect of food intake or capsule formulation on TEAEs (Part A): no effect
Participants with a TEAE possibly related to treatment, GB1211 (Part A): 3
Treatment- or dose-related trend in TEAEs (Part A): no apparent treatment- or dose-related trend
TEAE Back pain, no. of AEs (Part A 5 mg, fasted): 1
TEAE Back pain, participants (Part A 5 mg, fasted): 1 (16.7%) n (%)
TEAE Constipation, participants (Part A 5 mg, fasted): 0 n (%)
TEAE Cough, participants (Part A 5 mg, fasted): 0 n (%)
TEAE Decreased appetite, participants (Part A 5 mg, fasted): 0 n (%)
TEAE Diarrhea, no. of AEs (Part A 5 mg, fasted): 1
TEAE Diarrhea, participants (Part A 5 mg, fasted): 1 (16.7%) n (%)
TEAE Dry mouth, participants (Part A 5 mg, fasted): 0 n (%)
TEAE Dry skin, participants (Part A 5 mg, fasted): 0 n (%)
TEAE Dyspepsia, participants (Part A 5 mg, fasted): 0 n (%)
TEAE Gastrointestinal disorders, no. of AEs (Part A 5 mg, fasted): 1
TEAE Gastrointestinal disorders, participants (Part A 5 mg, fasted): 1 (16.7%) n (%)
TEAE General disorders and administration site conditions, no. of AEs (Part A 5 mg, fasted): 1
TEAE General disorders and administration site conditions, participants (Part A 5 mg, fasted): 1 (16.7%) n (%)
TEAE Headache, participants (Part A 5 mg, fasted): 0 n (%)
TEAE Infections and infestations, no. of AEs (Part A 5 mg, fasted): 1
TEAE Infections and infestations, participants (Part A 5 mg, fasted): 1 (16.7%) n (%)
TEAE Injury, poisoning and procedural complications, participants (Part A 5 mg, fasted): 0 n (%)
TEAE Medical device site reaction, no. of AEs (Part A 5 mg, fasted): 1
TEAE Medical device site reaction, participants (Part A 5 mg, fasted): 1 (16.7%) n (%)
TEAE Metabolism and nutrition disorders, participants (Part A 5 mg, fasted): 0 n (%)
TEAE Musculoskeletal and connective tissue disorders, no. of AEs (Part A 5 mg, fasted): 1
TEAE Musculoskeletal and connective tissue disorders, participants (Part A 5 mg, fasted): 1 (16.7%) n (%)
TEAE Nasopharyngitis, no. of AEs (Part A 5 mg, fasted): 1
TEAE Nasopharyngitis, participants (Part A 5 mg, fasted): 1 (16.7%) n (%)
TEAE Nervous system disorders, participants (Part A 5 mg, fasted): 0 n (%)
TEAE Pain, participants (Part A 5 mg, fasted): 0 n (%)
TEAE Rash, participants (Part A 5 mg, fasted): 0 n (%)
TEAE Respiratory, thoracic and mediastinal disorders, participants (Part A 5 mg, fasted): 0 n (%)
TEAE Skin and subcutaneous tissue disorders, participants (Part A 5 mg, fasted): 0 n (%)
TEAE Wound, participants (Part A 5 mg, fasted): 0 n (%)
TEAE Back pain, participants (Part A 20 mg, fasted): 0 n (%)
TEAE Constipation, participants (Part A 20 mg, fasted): 0 n (%)
TEAE Cough, participants (Part A 20 mg, fasted): 0 n (%)
TEAE Decreased appetite, participants (Part A 20 mg, fasted): 0 n (%)
TEAE Diarrhea, participants (Part A 20 mg, fasted): 0 n (%)
TEAE Dry mouth, participants (Part A 20 mg, fasted): 0 n (%)
TEAE Dry skin, participants (Part A 20 mg, fasted): 0 n (%)
TEAE Dyspepsia, participants (Part A 20 mg, fasted): 0 n (%)
TEAE Gastrointestinal disorders, participants (Part A 20 mg, fasted): 0 n (%)
TEAE General disorders and administration site conditions, no. of AEs (Part A 20 mg, fasted): 1
TEAE General disorders and administration site conditions, participants (Part A 20 mg, fasted): 1 (16.7%) n (%)
TEAE Headache, participants (Part A 20 mg, fasted): 0 n (%)
TEAE Infections and infestations, participants (Part A 20 mg, fasted): 0 n (%)
TEAE Injury, poisoning and procedural complications, participants (Part A 20 mg, fasted): 0 n (%)
TEAE Medical device site reaction, participants (Part A 20 mg, fasted): 0 n (%)
TEAE Metabolism and nutrition disorders, participants (Part A 20 mg, fasted): 0 n (%)
TEAE Musculoskeletal and connective tissue disorders, participants (Part A 20 mg, fasted): 0 n (%)
TEAE Nasopharyngitis, participants (Part A 20 mg, fasted): 0 n (%)
TEAE Nervous system disorders, participants (Part A 20 mg, fasted): 0 n (%)
TEAE Pain, no. of AEs (Part A 20 mg, fasted): 1
TEAE Pain, participants (Part A 20 mg, fasted): 1 (16.7%) n (%)
TEAE Rash, participants (Part A 20 mg, fasted): 0 n (%)
TEAE Respiratory, thoracic and mediastinal disorders, participants (Part A 20 mg, fasted): 0 n (%)
TEAE Skin and subcutaneous tissue disorders, participants (Part A 20 mg, fasted): 0 n (%)
TEAE Wound, participants (Part A 20 mg, fasted): 0 n (%)
TEAE Back pain, participants [1]: 0 n (%)
TEAE Constipation, participants [1]: 0 n (%)
TEAE Cough, no. of AEs [1]: 1
TEAE Cough, participants [1]: 1 (16.7%) n (%)
TEAE Decreased appetite, participants [1]: 0 n (%)
TEAE Diarrhea, participants [1]: 0 n (%)
TEAE Dry mouth, participants [1]: 0 n (%)
TEAE Dry skin, participants [1]: 0 n (%)
TEAE Dyspepsia, participants [1]: 0 n (%)
TEAE Gastrointestinal disorders, participants [1]: 0 n (%)
TEAE General disorders and administration site conditions, participants [1]: 0 n (%)
TEAE Headache, participants [1]: 0 n (%)
TEAE Infections and infestations, participants [1]: 0 n (%)
TEAE Injury, poisoning and procedural complications, participants [1]: 0 n (%)
TEAE Medical device site reaction, participants [1]: 0 n (%)
TEAE Metabolism and nutrition disorders, participants [1]: 0 n (%)
TEAE Musculoskeletal and connective tissue disorders, participants [1]: 0 n (%)
TEAE Nasopharyngitis, participants [1]: 0 n (%)
TEAE Nervous system disorders, participants [1]: 0 n (%)
TEAE Pain, participants [1]: 0 n (%)
TEAE Rash, participants [1]: 0 n (%)
TEAE Respiratory, thoracic and mediastinal disorders, no. of AEs [1]: 1
TEAE Respiratory, thoracic and mediastinal disorders, participants [1]: 1 (16.7%) n (%)
TEAE Skin and subcutaneous tissue disorders, participants [1]: 0 n (%)
TEAE Wound, participants [1]: 0 n (%)
TEAE Back pain, participants (Part A 50 mg (1 x 50 mg), fed): 0 n (%)
TEAE Constipation, participants (Part A 50 mg (1 x 50 mg), fed): 0 n (%)
TEAE Cough, participants (Part A 50 mg (1 x 50 mg), fed): 0 n (%)
TEAE Decreased appetite, participants (Part A 50 mg (1 x 50 mg), fed): 0 n (%)
TEAE Diarrhea, participants (Part A 50 mg (1 x 50 mg), fed): 0 n (%)
TEAE Dry mouth, participants (Part A 50 mg (1 x 50 mg), fed): 0 n (%)
TEAE Dry skin, no. of AEs (Part A 50 mg (1 x 50 mg), fed): 1
TEAE Dry skin, participants (Part A 50 mg (1 x 50 mg), fed): 1 (16.7%) n (%)
TEAE Dyspepsia, participants (Part A 50 mg (1 x 50 mg), fed): 0 n (%)
TEAE Gastrointestinal disorders, participants (Part A 50 mg (1 x 50 mg), fed): 0 n (%)
TEAE General disorders and administration site conditions, participants (Part A 50 mg (1 x 50 mg), fed): 0 n (%)
TEAE Headache, participants (Part A 50 mg (1 x 50 mg), fed): 0 n (%)
TEAE Infections and infestations, participants (Part A 50 mg (1 x 50 mg), fed): 0 n (%)
TEAE Injury, poisoning and procedural complications, participants (Part A 50 mg (1 x 50 mg), fed): 0 n (%)
TEAE Medical device site reaction, participants (Part A 50 mg (1 x 50 mg), fed): 0 n (%)
TEAE Metabolism and nutrition disorders, participants (Part A 50 mg (1 x 50 mg), fed): 0 n (%)
TEAE Musculoskeletal and connective tissue disorders, participants (Part A 50 mg (1 x 50 mg), fed): 0 n (%)
TEAE Nasopharyngitis, participants (Part A 50 mg (1 x 50 mg), fed): 0 n (%)
TEAE Nervous system disorders, participants (Part A 50 mg (1 x 50 mg), fed): 0 n (%)
TEAE Pain, participants (Part A 50 mg (1 x 50 mg), fed): 0 n (%)
TEAE Rash, participants (Part A 50 mg (1 x 50 mg), fed): 0 n (%)
TEAE Respiratory, thoracic and mediastinal disorders, participants (Part A 50 mg (1 x 50 mg), fed): 0 n (%)
TEAE Skin and subcutaneous tissue disorders, no. of AEs (Part A 50 mg (1 x 50 mg), fed): 1
TEAE Skin and subcutaneous tissue disorders, participants (Part A 50 mg (1 x 50 mg), fed): 1 (16.7%) n (%)
TEAE Wound, participants (Part A 50 mg (1 x 50 mg), fed): 0 n (%)
TEAE Back pain, no. of AEs [2]: 1
TEAE Back pain, participants [2]: 1 (16.7%) n (%)
TEAE Constipation, participants [2]: 0 n (%)
TEAE Cough, participants [2]: 0 n (%)
TEAE Decreased appetite, participants [2]: 0 n (%)
TEAE Diarrhea, participants [2]: 0 n (%)
TEAE Dry mouth, participants [2]: 0 n (%)
TEAE Dry skin, participants [2]: 0 n (%)
TEAE Dyspepsia, participants [2]: 0 n (%)
TEAE Gastrointestinal disorders, participants [2]: 0 n (%)
TEAE General disorders and administration site conditions, participants [2]: 0 n (%)
TEAE Headache, participants [2]: 0 n (%)
TEAE Infections and infestations, participants [2]: 0 n (%)
TEAE Injury, poisoning and procedural complications, participants [2]: 0 n (%)
TEAE Medical device site reaction, participants [2]: 0 n (%)
TEAE Metabolism and nutrition disorders, participants [2]: 0 n (%)
TEAE Musculoskeletal and connective tissue disorders, no. of AEs [2]: 1
TEAE Musculoskeletal and connective tissue disorders, participants [2]: 1 (16.7%) n (%)
TEAE Nasopharyngitis, participants [2]: 0 n (%)
TEAE Nervous system disorders, participants [2]: 0 n (%)
TEAE Pain, participants [2]: 0 n (%)
TEAE Rash, participants [2]: 0 n (%)
TEAE Respiratory, thoracic and mediastinal disorders, participants [2]: 0 n (%)
TEAE Skin and subcutaneous tissue disorders, participants [2]: 0 n (%)
TEAE Wound, participants [2]: 0 n (%)
TEAE Back pain, participants (Part A 100 mg, fasted): 0 n (%)
TEAE Constipation, participants (Part A 100 mg, fasted): 0 n (%)
TEAE Cough, participants (Part A 100 mg, fasted): 0 n (%)
TEAE Decreased appetite, participants (Part A 100 mg, fasted): 0 n (%)
TEAE Diarrhea, participants (Part A 100 mg, fasted): 0 n (%)
TEAE Dry mouth, participants (Part A 100 mg, fasted): 0 n (%)
TEAE Dry skin, participants (Part A 100 mg, fasted): 0 n (%)
TEAE Dyspepsia, no. of AEs (Part A 100 mg, fasted): 1
TEAE Dyspepsia, participants (Part A 100 mg, fasted): 1 (16.7%) n (%)
TEAE Gastrointestinal disorders, no. of AEs (Part A 100 mg, fasted): 1
TEAE Gastrointestinal disorders, participants (Part A 100 mg, fasted): 1 (16.7%) n (%)
TEAE General disorders and administration site conditions, participants (Part A 100 mg, fasted): 0 n (%)
TEAE Headache, participants (Part A 100 mg, fasted): 0 n (%)
TEAE Infections and infestations, no. of AEs (Part A 100 mg, fasted): 1
TEAE Infections and infestations, participants (Part A 100 mg, fasted): 1 (16.7%) n (%)
TEAE Injury, poisoning and procedural complications, participants (Part A 100 mg, fasted): 0 n (%)
TEAE Medical device site reaction, participants (Part A 100 mg, fasted): 0 n (%)
TEAE Metabolism and nutrition disorders, participants (Part A 100 mg, fasted): 0 n (%)
TEAE Musculoskeletal and connective tissue disorders, participants (Part A 100 mg, fasted): 0 n (%)
TEAE Nasopharyngitis, no. of AEs (Part A 100 mg, fasted): 1
TEAE Nasopharyngitis, participants (Part A 100 mg, fasted): 1 (16.7%) n (%)
TEAE Nervous system disorders, participants (Part A 100 mg, fasted): 0 n (%)
